# Assay results reported in patent publication US11400058B2, “Intravenous formulations of coenzyme Q10 (CoQ10) and methods of use thereof” (Berg LLC, priority 2010, dated 2022).
# Marks after values point to notes of the source that are not given here.
# Assay: 4-week repeat-dose toxicology study in rats with 2-week recovery (Study 20000328)
# Conditions: for Died or Sacrificed Moribund: animals of 15
# [1] = 62.5 mg/kg F, end of dosing, animals of 10
# [2] = 62.5 mg/kg F, end of recovery, animals of 5
# [3] = 62.5 mg/kg M, end of dosing, animals of 10
compound,measurement,setting,value
"COC1=C(OC)C(=O)C(C/C=C(\C)CC/C=C(\C)CC/C=C(\C)CC/C=C(\C)CC/C=C(\C)CC/C=C(\C)CC/C=C(\C)CC/C=C(\C)CC/C=C(\C)CCC=C(C)C)=C(C)C1=O [CoQ10, Coenzyme Q10]",Died or Sacrificed Moribund,62.5 mg/kg F,0
same,ALT,"62.5 mg/kg F, end of dosing",19 IU/L
same,APPT,"62.5 mg/kg F, end of dosing",15.1 s
same,AST,"62.5 mg/kg F, end of dosing",67* IU/L
same,"Body Weight, percent difference from controls","62.5 mg/kg F, end of dosing",−1.7%
same,Eosinophils,"62.5 mg/kg F, end of dosing",0.09 10^3/cmm
same,Erythrocytes,"62.5 mg/kg F, end of dosing",7.77* 10^6/cmm
same,"Food Consumption, percent difference from controls","62.5 mg/kg F, end of dosing",−4.0%
same,GGT,"62.5 mg/kg F, end of dosing",0.42 IU/L
same,Hematocrit,"62.5 mg/kg F, end of dosing",42.4* %
same,Hemoglobin,"62.5 mg/kg F, end of dosing",14.7* g/dL
same,Leukocytes,"62.5 mg/kg F, end of dosing",8.33 10^3/cmm
same,"Liver weight (absolute), percent difference from controls","62.5 mg/kg F, end of dosing",−6.1%
same,Lymphocytes,"62.5 mg/kg F, end of dosing",6.79 10^3/cmm
same,Neutrophils,"62.5 mg/kg F, end of dosing",1.06 10^3/cmm
same,"Spleen weight (absolute), percent difference from controls","62.5 mg/kg F, end of dosing",−48.2* %
same,"Bone Marrow, Sternum Hyperplasia",[1],0
same,"Bone Marrow, Sternum Hyperplasia, Mild",[1],0
same,"Bone Marrow, Sternum Hyperplasia, Minimal",[1],0
same,Gross Pathology: Enlarged Pancreatic Lymph Nodes,[1],0
same,Gross Pathology: Pale Adrenal,[1],0
same,Gross Pathology: Pale Liver,[1],7
same,Gross Pathology: Pale Lymph Nodes,[1],1
same,Gross Pathology: Pale Ovaries,[1],0
same,Gross Pathology: Pale Pituitary,[1],0
same,Gross Pathology: Pale SQ Skin,[1],0
same,Liver Focal Necrosis,[1],1
same,"Liver Focal Necrosis, Minimal",[1],1
same,Liver Histiocytic Infiltration,[1],7
same,"Liver Histiocytic Infiltration, Mild",[1],0
same,"Liver Histiocytic Infiltration, Minimal",[1],7
same,"Liver Histiocytic Infiltration, Moderate",[1],0
same,Liver Vacuolation,[1],7
same,"Liver Vacuolation, Mild",[1],0
same,"Liver Vacuolation, Minimal",[1],7
same,"Lymph Node, Man. Histiocytic Infiltration",[1],4
same,"Lymph Node, Man. Histiocytic Infiltration, Mild",[1],0
same,"Lymph Node, Man. Histiocytic Infiltration, Minimal",[1],4
same,"Lymph Node, Man. Histiocytic Infiltration, Moderate",[1],0
same,"Lymph Node, Mes. Histiocytic Infiltration",[1],9
same,"Lymph Node, Mes. Histiocytic Infiltration, Mild",[1],2
same,"Lymph Node, Mes. Histiocytic Infiltration, Minimal",[1],7
same,"Lymph Node, Mes. Histiocytic Infiltration, Moderate",[1],0
same,Ovary Histiocytic Infiltration,[1],0
same,"Ovary Histiocytic Infiltration, Mild",[1],0
same,"Ovary Histiocytic Infiltration, Minimal",[1],0
same,"Ovary Histiocytic Infiltration, Moderate",[1],0
same,"Skin, Dermis Histiocytic Infiltration",[1],0
same,"Skin, Dermis Histiocytic Infiltration, Marked",[1],0
same,"Skin, Dermis Histiocytic Infiltration, Mild",[1],0
same,"Skin, Dermis Histiocytic Infiltration, Moderate",[1],0
same,"Skin, SQ Histiocytic Infiltration",[1],0
same,"Skin, SQ Histiocytic Infiltration, Mild",[1],0
same,Spleen Histiocytic Infiltration,[1],4
same,"Spleen Histiocytic Infiltration, Marked",[1],0
same,"Spleen Histiocytic Infiltration, Mild",[1],4
same,"Spleen Histiocytic Infiltration, Moderate",[1],0
same,ALT,"62.5 mg/kg F, end of recovery",19 IU/L
same,APPT,"62.5 mg/kg F, end of recovery",14.4 s
same,AST,"62.5 mg/kg F, end of recovery",83 IU/L
same,"Body Weight, percent difference from controls","62.5 mg/kg F, end of recovery",−0.9%
same,"Food Consumption, percent difference from controls","62.5 mg/kg F, end of recovery",−7.9%
same,GGT,"62.5 mg/kg F, end of recovery",0.12 IU/L
same,"Liver weight (absolute), percent difference from controls","62.5 mg/kg F, end of recovery",+4.6%
same,"Spleen weight (absolute), percent difference from controls","62.5 mg/kg F, end of recovery",+0.5%
same,Adrenal Gland Vacuolation,[2],3
same,"Adrenal Gland Vacuolation, Marked",[2],0
same,"Adrenal Gland Vacuolation, Mild",[2],0
same,"Adrenal Gland Vacuolation, Minimal",[2],3
same,"Adrenal Gland Vacuolation, Moderate",[2],0
same,Gross Pathology: Enlarged Spleen,[2],0
same,Gross Pathology: Pale Iliac Lymph Node,[2],2
same,Gross Pathology: Pale Liver,[2],3
same,Gross Pathology: Pale Ovaries,[2],0
same,Gross Pathology: Pale Pancreatic Lymph Node,[2],1
same,Liver Focal Necrosis,[2],0
same,"Liver Focal Necrosis, Mild",[2],0
same,"Liver Focal Necrosis, Minimal",[2],0
same,Liver Histiocytic Infiltration,[2],5
same,"Liver Histiocytic Infiltration, Mild",[2],2
same,"Liver Histiocytic Infiltration, Minimal",[2],3
same,"Liver Histiocytic Infiltration, Moderate",[2],0
same,Liver Multifocal Necrosis,[2],0
same,"Liver Multifocal Necrosis, Mild",[2],0
same,"Liver Multifocal Necrosis, Moderate",[2],0
same,Liver Vacuolation,[2],5
same,"Liver Vacuolation, Mild",[2],2
same,"Liver Vacuolation, Minimal",[2],2
same,"Liver Vacuolation, Moderate",[2],1
same,"Lymph Node, Man. Histiocytic Infiltration",[2],2
same,"Lymph Node, Man. Histiocytic Infiltration, Mild",[2],0
same,"Lymph Node, Man. Histiocytic Infiltration, Minimal",[2],2
same,"Lymph Node, Man. Histiocytic Infiltration, Moderate",[2],0
same,"Lymph Node, Mes. Histiocytic Infiltration",[2],4
same,"Lymph Node, Mes. Histiocytic Infiltration, Mild",[2],0
same,"Lymph Node, Mes. Histiocytic Infiltration, Minimal",[2],4
same,Ovary Histiocytic Infiltration,[2],4
same,"Ovary Histiocytic Infiltration, Mild",[2],0
same,"Ovary Histiocytic Infiltration, Minimal",[2],4
same,"Ovary Histiocytic Infiltration, Moderate",[2],0
same,Spleen Histiocytic Infiltration,[2],3
same,"Spleen Histiocytic Infiltration, Marked",[2],0
same,"Spleen Histiocytic Infiltration, Mild",[2],1
same,"Spleen Histiocytic Infiltration, Minimal",[2],2
same,"Spleen Histiocytic Infiltration, Moderate",[2],0
same,Died or Sacrificed Moribund,62.5 mg/kg M,0
same,ALT,"62.5 mg/kg M, end of dosing",22 IU/L
same,APPT,"62.5 mg/kg M, end of dosing",17.6 s
same,AST,"62.5 mg/kg M, end of dosing",74 IU/L
same,"Body Weight, percent difference from controls","62.5 mg/kg M, end of dosing",−0.5%
same,Eosinophils,"62.5 mg/kg M, end of dosing",0.09* 10^3/cmm
same,Erythrocytes,"62.5 mg/kg M, end of dosing",8.14* 10^6/cmm
same,"Food Consumption, percent difference from controls","62.5 mg/kg M, end of dosing",+2.5%
same,GGT,"62.5 mg/kg M, end of dosing",0.00 IU/L
same,Hematocrit,"62.5 mg/kg M, end of dosing",44.3%
same,Hemoglobin,"62.5 mg/kg M, end of dosing",15.1* g/dL
same,Leukocytes,"62.5 mg/kg M, end of dosing",8.56* 10^3/cmm
same,"Liver weight (absolute), percent difference from controls","62.5 mg/kg M, end of dosing",−5.5%
same,Lymphocytes,"62.5 mg/kg M, end of dosing",7.02* 10^3/cmm
same,Neutrophils,"62.5 mg/kg M, end of dosing",1.06 10^3/cmm
same,"Spleen weight (absolute), percent difference from controls","62.5 mg/kg M, end of dosing",−57.3* %
same,"Bone Marrow, Sternum Hyperplasia",[3],0
same,"Bone Marrow, Sternum Hyperplasia, Mild",[3],0
same,"Bone Marrow, Sternum Hyperplasia, Minimal",[3],0
same,Gross Pathology: Enlarged Pancreatic Lymph Nodes,[3],0
same,Gross Pathology: Pale Adrenal,[3],0
same,Gross Pathology: Pale Liver,[3],9
same,Gross Pathology: Pale Lymph Nodes,[3],0
same,Gross Pathology: Pale Pituitary,[3],0
same,Gross Pathology: Pale SQ Skin,[3],1
same,Liver Focal Necrosis,[3],0
same,"Liver Focal Necrosis, Minimal",[3],0
same,Liver Histiocytic Infiltration,[3],2
same,"Liver Histiocytic Infiltration, Mild",[3],1
same,"Liver Histiocytic Infiltration, Minimal",[3],1
same,"Liver Histiocytic Infiltration, Moderate",[3],0
same,Liver Vacuolation,[3],2
same,"Liver Vacuolation, Mild",[3],0
same,"Liver Vacuolation, Minimal",[3],2
same,"Lymph Node, Man. Histiocytic Infiltration",[3],6
same,"Lymph Node, Man. Histiocytic Infiltration, Mild",[3],1
same,"Lymph Node, Man. Histiocytic Infiltration, Minimal",[3],4
same,"Lymph Node, Man. Histiocytic Infiltration, Moderate",[3],1
same,"Lymph Node, Mes. Histiocytic Infiltration",[3],9
same,"Lymph Node, Mes. Histiocytic Infiltration, Mild",[3],4
same,"Lymph Node, Mes. Histiocytic Infiltration, Minimal",[3],5
same,"Lymph Node, Mes. Histiocytic Infiltration, Moderate",[3],0
same,"Skin, Dermis Histiocytic Infiltration",[3],0
same,"Skin, Dermis Histiocytic Infiltration, Marked",[3],0
same,"Skin, Dermis Histiocytic Infiltration, Mild",[3],0
same,"Skin, Dermis Histiocytic Infiltration, Moderate",[3],0
same,"Skin, SQ Histiocytic Infiltration",[3],0
same,"Skin, SQ Histiocytic Infiltration, Mild",[3],0
same,Spleen Histiocytic Infiltration,[3],1
same,"Spleen Histiocytic Infiltration, Marked",[3],0
